In patent publication US9981976B2, “Piperidine substituted pyrazolo[1,5-A]pyrimidine derivatives with inhibitory activity on the replication of the respiratory syncytial virus (RSV)” (priority 2014, dated 2018):

Assays:
rgRSV224 virus = assay: microbe, parasite or virus in culture; type: cell-based, respiratory syncytial virus (RSV); details: for EC50: human respiratory syncytial virus, HeLa, 72 h, read-out: RSV HELA pEC50, rgRSV224 virus (MOI=1), HeLa cells, GFP expression three days post-virus exposure (converted)
HeLa cells = assay: Cytotoxicity in HeLa cells, ATP content (ATPlite kit); details: three days incubation, CC50 = 50% concentration for cytotoxicity
Experimental: Black 384-well clear-bottom microtiter plates (Corning, Amsterdam, The Netherlands) were filled via acoustic drop ejection using the echo liquid handler (Labcyte, Sunnyvale, Calif.). 200 nL of compound stock solutions (100% DMSO) were transferred to the assay plates. 9 serial 4-fold dilutions of compound were made, creating per quadrant the same compound concentration. The assay was initiated by adding 10 μL of culture medium to each well (RPMI medium without phenol red, 10% FBS-heat inactivated, 0.04% gentamycin (50 mg/mL). All addition steps are done by using a multidrop dispenser (Thermo Scientific, Erembodegem, Belgium). Next, rgRSV224 virus (MOI=1) diluted in culture medium was added to the plates. rgRSV224 virus is an engineered virus that includes an additional GFP gene (Hallak L K, Spillmann D, Collins P L, Peeples M E. Glycosaminoglycan sulfation requirements for respiratory syncytial virus infection; Journal of virology (2000), 74(22), 10508-13) and was in-licensed from the NIH (Bethesda, Md., USA). Finally, 20 μL of a HeLa cell suspension (3,000 cells/well) were plated. Medium, virus- and mock-infected controls were included in each test. The wells contain 0.05% DMSO per volume. Cells were incubated at 37° C. in a 5% CO2 atmosphere. Three days post-virus exposure, viral replication was quantified by measuring GFP expression in the cells by an in house developed MSM laser microscope (Tibotec, Beerse, Belgium). The EC50 was defined as the 50% inhibitory concentration for GFP expression. In parallel, compounds were incubated for three days in a set of white 384-well microtiter plates (Corning) and the cytotoxicity of compounds in HeLa cells was determined by measuring the ATP content of the cells using the ATPlite kit (Perkin Elmer, Zaventem, Belgium) according to the manufacturer's instructions. The CC50 was defined as the 50% concentration for cytotoxicity.

Structure (SMILES) | RSV HELA pEC50 (rgRSV224 virus; rgRSV224 virus (MOI=1), HeLa cells, GFP expression three days post-virus exposure) | SI TOX HELA (HeLa cells) | EC50 (rgRSV224 virus) [nM]
CS(=O)(=O)Nc1nc(N2CCCC[C@H]2c2cc3nc(N4CCC4)cc(N4CCOCC4)n3n2)c2cc(Cl)ccc2n1 (stereo in doubt) [P32, N-(4-(2-(5-(azetidin-1-yl)-7-morpholinopyrazolo[1,5-a]pyrimidin-2-yl)piperidin-1-yl)-6-chloroquinazolin-2-yl)methanesulfonamide] | 7.3 | <4 | –
Cc1cn2nc(C3CCCCN3c3ncnc4cccc(C)c34)cc2nc1N1CC[C@@H](N)C1 (stereo in doubt) [P48, (3 S)-1-(6-methyl-2-(1-(5-methylquinazolin-4-yl)piperidin-2-yl)-pyrazolo[1,5-a]pyrimidin-5-yl)pyrrolidin-3-amine] | – | 4.5 | 12.6
Cc1ccc2ncnc(N3CCCCC3c3cc4nc(N5CCC(N)C5)ccn4n3)c2c1 (stereo in doubt) [P49, (3S)-1-(2-(1-(6-methylquinazolin-4-yl)piperidin-2-yl)pyrazolo[1,5-a]pyrimidin-5-yl)pyrrolidin-3-amine] | – | 4.3 | 794
Cc1ccc2ncnc(N3CCCC[C@H]3c3cc4nc(N5CCC(N)C5)ccn4n3)c2c1 (stereo in doubt) [P51, (S)-1-(2-((S)-1-(6-methylquinazolin-4-yl)piperidin-2-yl)pyrazolo-[1,5-a]pyrimidin-5-yl)pyrrolidin-3-amine] | – | 4.3 | 316
Clc1ccc2ncnc(N3CCCCC3c3cc4nc(N5CCC5)cc(N5CCOCC5)n4n3)c2c1 (centres unmarked) [P1, 4-(5-(azetidin-1-yl)-2-(1-(6-chloroquinazolin-4-yl)piperidin-2-yl)-pyrazolo[1,5-a]pyrimidin-7-yl)morpholine] | – | 4.4 | 794
Clc1ccc2ncnc(N3CCCC[C@H]3c3cc4nc(N5CCC5)cc(N5CCOCC5)n4n3)c2c1 [P2, (S)-4-(5-(azetidin-1-yl)-2-(1-(6-chloroquinazolin-4-yl)piperidin-2-yl)-pyrazolo[1,5-a]pyrimidin-7-yl)morpholine] | – | 4.4 | 316
Clc1ccc2ncnc(N3CCCC[C@@H]3c3cc4nc(N5CCC5)cc(N5CCOCC5)n4n3)c2c1 [P3, (R)-4-(5-(azetidin-1-yl)-2-(1-(6-chloroquinazolin-4-yl)piperidin-2-yl)pyrazolo[1,5-a]pyrimidin-7-yl)morpholine] | – | 4.6 | 3980
Cc1ccc2ncnc(N3CCCCC3c3cc4nc(N5CCC5)cc(N5CCOCC5)n4n3)c2c1 (centres unmarked) [P4, 4-(5-(azetidin-1-yl)-2-(1-(6-methylquinazolin-4-yl)piperidin-2-yl)-pyrazolo[1,5-a]pyrimidin-7-yl)morpholine] | – | <4 | 158
Cc1ccc2nc(Cl)nc(N3CCCCC3c3cc4nc(N5CCC5)cc(N5CCOCC5)n4n3)c2c1 (centres unmarked) [P5, 4-(5-(azetidin-1-yl)-2-(1-(2-chloro-6-methylquinazolin-4-yl)piperidin-2-yl)pyrazolo[1,5-a]pyrimidin-7-yl)morpholine] | – | <5 | 251
Cc1ccc2nc(NS(C)(=O)=O)nc(N3CCCCC3c3cc4nc(N5CCC5)cc(N5CCOCC5)n4n3)c2c1 (centres unmarked) [P6, N-(4-(2-(5-(azetidin-1-yl)-7-morpholinopyrazolo[1,5-a]pyrimidin-2-yl)piperidin-1-yl)-6-methylquinazolin-2-yl)methanesulfonamide] | – | <4.0 | 5.01
Cc1ccc2nc(NS(C)(=O)=O)nc(N3CCCC[C@@H]3c3cc4nc(N5CCC5)cc(N5CCOCC5)n4n3)c2c1 [P7, (R)—N-(4-(2-(5-(azetidin-1-yl)-7-morpholinopyrazolo[1,5-a]pyrimidin-2-yl)-piperidin-1-yl)-6-methylquinazolin-2-yl)methanesulfonamide] | – | <4 | 2000
Cc1ccc2nc(NS(C)(=O)=O)nc(N3CCCC[C@H]3c3cc4nc(N5CCC5)cc(N5CCOCC5)n4n3)c2c1 [P8, (S)—N-(4-(2-(5-(azetidin-1-yl)-7-morpholinopyrazolo[1,5-a]pyrimidin-2-yl)piperidin-1-yl)-6-methylquinazolin-2-yl)methanesulfonamide] | – | <4 | 7.94
Cc1cccc2nc(NS(C)(=O)=O)nc(N3CCCCC3c3cc4nc(N5CCC5)cc(N5CCOCC5)n4n3)c12 (centres unmarked) [P9, N-(4-(2-(5-(azetidin-1-yl)-7-morpholinopyrazolo[1,5-a]pyrimidin-2-yl)piperidin-1-yl)-5-methylquinazolin-2-yl)methanesulfonamide] | – | <4.6 | 5.01
CS(=O)(=O)Nc1nc(N2CCCCC2c2cc3nc(N4CCC4)cc(N4CCOCC4)n3n2)c2ccccc2n1 (centres unmarked) [P10, N-(4-(2-(5-(azetidin-1-yl)-7-morpholinopyrazolo[1,5-a]pyrimidin-2-yl)piperidin-1-yl)quinazolin-2-yl)methanesulfonamide] | – | <4.3 | 631
Cc1ccc2ncnc(N3CCCCC3c3cc4nc(N5CC(N)C5)c(C)cn4n3)c2c1 (centres unmarked) [P13, 1-(6-methyl-2-(1-(6-methylquinazolin-4-yl)piperidin-2-yl)pyrazolo-[1,5-a]pyrimidin-5-yl)azetidin-3-amine] | – | 4.3 | 398
COCCOC(=O)Nc1nc(N2CCCCC2c2cc3nc(N4CCC4)cc(N4CCOCC4)n3n2)c2cc(N3CCOCC3)ccc2n1 (centres unmarked) [P14, 2-methoxyethyl 4-(2-(5-(azetidin-1-yl)-7-morpholinopyrazolo[1,5-a]-pyrimidin-2-yl)piperidin-1-yl)-6-morpholinoquinazolin-2-ylcarbamate] | – | <4 | 794
Cc1nc(N2CCCCC2c2cc3nc(N4CCC4)cc(N4CCOCC4)n3n2)c2cc[nH]c2n1 (centres unmarked) [P15, 4-(5-(azetidin-1-yl)-2-(1-(2-methyl-7H-pyrrolo[2,3-d]pyrimidin-4-yl)-piperidin-2-yl)pyrazolo[1,5-a]pyrimidin-7-yl)morpholine] | – | 4.0 | 251
CCOc1nc(N2CCCCC2c2cc3nc(N4CCC4)cc(N4CCOCC4)n3n2)c2cccnc2n1 (centres unmarked) [P16, 4-(5-(azetidin-1-yl)-2-(1-(2-ethoxypyrido[2,3-d]pyrimidin-4-yl)-piperidin-2-yl)pyrazolo[1,5-a]pyrimidin-7-yl)morpholine] | – | 4.3 | 79.4
Cc1cccc2ncnc(N3CCCCC3c3cc4nc(N5CCC5)cc(N5CCOCC5)n4n3)c12 (centres unmarked) [P17, 4-(5-(azetidin-1-yl)-2-(1-(5-methylquinazolin-4-yl)piperidin-2-yl)-pyrazolo[1,5-a]pyrimidin-7-yl)morpholine] | – | 4.4 | 3.98
Cc1cccc2ncnc(N3CCCC[C@@H]3c3cc4nc(N5CCC5)cc(N5CCOCC5)n4n3)c12 [P18, (R)-4-(5-(azetidin-1-yl)-2-(1-(5-methylquinazolin-4-yl)piperidin-2-yl)-pyrazolo[1,5-a]pyrimidin-7-yl)morpholine] | – | <4.3 | > 1000
Cc1cccc2ncnc(N3CCCC[C@H]3c3cc4nc(N5CCC5)cc(N5CCOCC5)n4n3)c12 [P19, (S)-4-(5-(azetidin-1-yl)-2-(1-(5-methylquinazolin-4-yl)piperidin-2-yl)pyrazolo[1,5-a]pyrimidin-7-yl)morpholine] | – | <4.3 | 10
Cc1cn2nc(C3CCCCN3c3ncnc4cccc(C)c34)cc2nc1N1CC(O)C1 (centres unmarked) [P23, 1-(6-methyl-2-(1-(5-methylquinazolin-4-yl)piperidin-2-yl)pyrazolo-[1,5-a]pyrimidin-5-yl)azetidin-3-ol] | – | <4.6 | 15.8
Cc1cn2nc([C@H]3CCCCN3c3ncnc4cccc(C)c34)cc2nc1N1CC(O)C1 [P24, (R)-1-(6-methyl-2-(1-(5-methylquinazolin-4-yl)piperidin-2-yl)pyrazolo[1,5-a]-pyrimidin-5-yl)azetidin-3-ol] | – | <4.6 | > 25100
Cc1cn2nc([C@@H]3CCCCN3c3ncnc4cccc(C)c34)cc2nc1N1CC(O)C1 [P25, (S)-1-(6-methyl-2-(1-(5-methylquinazolin-4-yl)-piperidin-2-yl)pyrazolo[1,5-a]pyrimidin-5-yl)azetidin-3-ol] | – | <4.6 | 31.6
Cc1cn2nc(C3CCCCN3c3ncnc4cccc(C)c34)cc2nc1N1CC(N)C1 (centres unmarked) [P26, 1-(6-methyl-2-(1-(5-methylquinazolin-4-yl)piperidin-2-yl)pyrazolo-[1,5-a]pyrimidin-5-yl)azetidin-3-amine] | – | 4.3 | 25.1
COC(=O)Nc1nc(N2CCCCC2c2cc3nc(N4CCC4)cc(N4CCOCC4)n3n2)c2c(C)cccc2n1 (centres unmarked) [P29, methyl (4-(2-(5-(azetidin-1-yl)-7-morpholinopyrazolo[1,5-a]-pyrimidin-2-yl)piperidin-1-yl)-5-methylquinazolin-2-yl)carbamate] | – | 4.5 | 398
Cc1ccc(C)c2c(N3CCCCC3c3cc4nc(N5CCC5)cc(N5CCOCC5)n4n3)ncnc12 (centres unmarked) [P66, 4-(5-(azetidin-1-yl)-2-(1-(5,8-dimethylquinazolin-4-yl)piperidin-2-yl)-pyrazolo[1,5-a]pyrimidin-7-yl)morpholine] | – | – | 100
